From PubChem BioAssay AID2060500 (Molecular Pharmacology Branch, DTP, NCI, 2025)

Test system: 596521-263-R-J1-PDC complex spheroids, viability % of control
Assay: Anticancer human tumor 596521-263-R-J1-PDC patient-derived soft tissue sarcoma cell line growth inhibition [GQUAD]
Conditions: for IC50: curve of first compound; for viability, T/C: stronger effect = lower value
Procedure, shortened: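 Viability of tumor cells grown as complex spheroids with endothelial and stromal cells, exposed to drug combinations. Top concentration at or near clinical Cmax (else 10 microM), diluted in half-log increments.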
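Also: spheroids exposed to drugs for 7 days before viability reading.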
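For viability, T/C in this document: 100% = DMSO vehicle control viability.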

## CC(=O)O[C@H]1C(=O)[C@@]2(C)[C@H]([C@H](OC(=O)c3ccccc3)[C@]3(O)C[C@H](OC(=O)[C@H](O)[C@@H](NC(=O)c4ccccc4)c4ccccc4)C(C)=C1C3(C)C)[C@]1(OC(C)=O)CO[C@@H]1C[C@@H]2O + Cc1cnc(CNC(=O)c2c(=O)c3ccc(N4CCCN(C)CC4)nc3n3c2sc2ccccc23)cn1
Second compound 0.0316 µM
  IC50: < 31.6 nM
Second compound 0.1 µM
  IC50: < 31.6 nM
Second compound 0.316 µM
  IC50: < 31.6 nM
Second compound 1 µM
  IC50: < 31.6 nM
Second compound 3.16 µM
  IC50: < 31.6 nM
Second compound 10 µM
  IC50: < 31.6 nM
Second compound 0.0316 µM, first compound 0.0316 µM
  viability, T/C: 44%
Second compound 0.0316 µM, first compound 0.1 µM
  viability, T/C: 30.7%
Second compound 0.0316 µM, first compound 0.316 µM
  viability, T/C: 23.5%
Second compound 0.0316 µM, first compound 1 µM
  viability, T/C: 27.8%
Second compound 0.0316 µM, first compound 3.16 µM
  viability, T/C: 25.9%
Second compound 0.0316 µM, first compound 10 µM
  viability, T/C: 28%
Second compound 0.1 µM, first compound 0.0316 µM
  viability, T/C: 43.7%
Second compound 0.1 µM, first compound 0.1 µM
  viability, T/C: 25.2%
Second compound 0.1 µM, first compound 0.316 µM
  viability, T/C: 28.9%
Second compound 0.1 µM, first compound 1 µM
  viability, T/C: 28.8%
Second compound 0.1 µM, first compound 3.16 µM
  viability, T/C: 29.3%
Second compound 0.1 µM, first compound 10 µM
  viability, T/C: 28.9%
Second compound 0.316 µM, first compound 0.0316 µM
  viability, T/C: 38.5%
Second compound 0.316 µM, first compound 0.1 µM
  viability, T/C: 30.4%
Second compound 0.316 µM, first compound 0.316 µM
  viability, T/C: 25.1%
Second compound 0.316 µM, first compound 1 µM
  viability, T/C: 28.1%
Second compound 0.316 µM, first compound 3.16 µM
  viability, T/C: 29%
Second compound 0.316 µM, first compound 10 µM
  viability, T/C: 30.8%
Second compound 1 µM, first compound 0.0316 µM
  viability, T/C: 36.5%
Second compound 1 µM, first compound 0.1 µM
  viability, T/C: 32.5%
Second compound 1 µM, first compound 0.316 µM
  viability, T/C: 28.5%
Second compound 1 µM, first compound 1 µM
  viability, T/C: 27.9%
Second compound 1 µM, first compound 3.16 µM
  viability, T/C: 27.7%
Second compound 1 µM, first compound 10 µM
  viability, T/C: 31.1%
Second compound 3.16 µM, first compound 0.0316 µM
  viability, T/C: 35.4%
Second compound 3.16 µM, first compound 0.1 µM
  viability, T/C: 28.1%
Second compound 3.16 µM, first compound 0.316 µM
  viability, T/C: 24.5%
Second compound 3.16 µM, first compound 1 µM
  viability, T/C: 25.5%
Second compound 3.16 µM, first compound 3.16 µM
  viability, T/C: 27.6%
Second compound 3.16 µM, first compound 10 µM
  viability, T/C: 32.2%
Second compound 10 µM, first compound 0.0316 µM
  viability, T/C: 7.69%
Second compound 10 µM, first compound 0.1 µM
  viability, T/C: 8.44%
Second compound 10 µM, first compound 0.316 µM
  viability, T/C: 7.94%
Second compound 10 µM, first compound 1 µM
  viability, T/C: 7.65%
Second compound 10 µM, first compound 3.16 µM
  viability, T/C: 0.28%
Second compound 10 µM, first compound 10 µM
  viability, T/C: 0.22%
